Source: publication PMC10609081, “In Vivo Trafficking of the Anticancer Drug Tris(8-Quinolinolato) Gallium (III) (KP46) by Gallium-68/67 PET/SPECT Imaging” (Molecules, 2023)

Tests used:
[1] = PET imaging and ex vivo biodistribution 4 h after intravenous injection, NSG mice bearing A375 xenografts (groups A, B); assay type: in vivo; conditions: i.v., tracer level
Description: All animal experiments were performed in accordance with the Animals (Scientific Procedures) Act, 1986, with protocols approved by the Animal Welfare and Ethical Review Body for King’s College London under project and personal licences approved by the UK Home Office. Tumour xenograft studies were performed on female NSG mice or female athymic nude mice after injecting them subcutaneously in the right shoulder with 2.5 × 10^6 A375 cells in 100 µL of PBS. All in vivo studies were conducted between 14 and 24 days after inoculation, with tumour volumes between 100 mm^3 and 580 mm^3 (see Supplementary Materials, Figure S11).
Intravenous [^68Ga]gallium acetate and [^68Ga]KP46: NSG mice bearing A375 xenografts were fasted for 12–14 h before the start of the experiment. Mice were anaesthetised with isoflurane and injected with tracer level [^68Ga]gallium acetate (group A, n = 5) or [^68Ga]KP46 (group B, n = 5) (13–18 MBq, <200 μL) via the tail vein. […] The organs were harvested, weighed, and gamma counted. […]
PET/CT images were acquired with a nanoScan® PET/CT (Mediso Medical Imaging Systems, Budapest, Hungary) scanner operating in list mode using a 400–600 keV energy window and a coincidence window of 1:3. […] The data were then visualised and quantified using VivoQuant^© v.2.50 (InviCro, Boston, MA, USA) software. […] Images were coregistered and analysed using VivoQuant v2.50 (InviCro, Needham, MA, USA).

[2] = test system: A375 (human melanoma) cells; assay: Cellular uptake of radiogallium in cultured A375 cells; assay type: cell-based; conditions: 1 h
Description: One million A375 (human melanoma) cells were suspended in 0.5 mL of Dulbecco’s Modified Eagle’s Medium (500 mL DMEM, low-glucose medium with 50 mL 10% FBS, 5 mL of L-glutamine, and 5 mL of penicillin and streptomycin) in 1.5 mL Eppendorf tubes. An amount of 10 µL of no-carrier-added [^68Ga]KP46 or [^68Ga]gallium acetate was added to the cell suspensions (giving a ^68Ga concentration of ca. 20 pM) and to similar tubes containing medium but no cells (to check and compensate for adhesion of radioactivity to tubes). Samples were incubated for 60 min at 37 °C under 5% CO2 and then centrifuged (Sci Spin Mini) for three minutes at 1500 RPM. The supernatants were transferred to fresh Eppendorf tubes. The pellets were washed twice with 0.5 mL PBS, following the same centrifugation protocol, and washes were added to the supernatant tubes. Supernatants and cell pellets were measured using a gamma counter to determine the average activity in cell pellets as a % of the total activity for each sample. The intracellular-to-extracellular ^68Ga concentration ratio was also estimated by correcting for the different volume of supernatant and cell pellet using an estimated spherical cell diameter of 17.5 μm, which leads to an estimated volume of the cell pellet (10^6 cells) of 2.8 μL.

[3] = Pilot study 1: oral [68Ga]KP46, mice kept anaesthetised for four hours, ex vivo biodistribution; assay type: in vivo; conditions: anaesthetised 0-4 h
Description: 67Ga citrate to 67Ga chloride conversion method
67Ga was provided as [67Ga]Ga-citrate, typically 418-430 MBq in 5.5 ml at the time of receipt (76-78 MBq/ml). The 67Ga-citrate solution was passed through a Sep-Pak plus light silica cartridge (part number WAT023537) at a flow rate of 1 ml/min to trap the 67Ga on the silica cartridge. The eluate was passed through again to capture more (total 80%) of the available radioactivity on the cartridge.
The cartridge was then washed twice with 5 ml of H2O to remove citric acid, then eluted with 600 µl of 0.1 M HCl in 50 µl fractions. Fractions with the highest activity (fraction 4, 5, and 6) were used for […]
Tumour xenograft development
500 Figure S11. Tumour growth profile of A375
400 human melanoma cells in female athymic nude mice (2.5 x 10^6 cells). Data are 300 reported as mean ± SD (n=24).
Developing a method for the oral administration of [68Ga]KP46
In the first pilot study, mice bearing a tumour xenograft (A375) were anaesthetised, orally administered with [68Ga]KP46 (10 MBq, 400 µl) and PET scanned (no CT scan was performed) for four hours (n = 1), or orally administered with [68Ga]KP46 (1–2 MBq, 400 µl) and kept anaesthetised for four hours (n = 3), before being culled for organ harvesting and gamma counting. […]
radioactivity was in the stomach, with minimal uptake in the small intestine. […]

## [68Ga+3].[O-]c1cccc2cccnc12.[O-]c1cccc2cccnc12.[O-]c1cccc2cccnc12 [[^68Ga]KP46]
[1]; 4 h, n = 5
  tumour uptake, ex vivo biodistribution: 2.6 ± 0.9 %ID/g
[1]; by four hours
  tumour uptake of 68Ga by PET/CT: no visible tumour accumulation
[2]; DMEM containing FBS, n = 3
  cellular uptake (% radioactivity added, corrected for nonspecific binding to vessel): 2.55% ± 1%
[2]; corrected data, estimated cell pellet volume 2.8 μL
  intracellular-to-extracellular concentration ratio: 14 ± 6
[3]
  activity in tumour, ex vivo: 0.6 ± 0.3 %ID/g
